Laboratory results: patent US11186606B2, “Compositions and methods of modulating the immune response by activating alpha protein kinase 1” (Shanghai Yao Yuan Biotechnology Co., Ltd., priority 2017, dated 2021)

Key:
[1] = tested on: phosphatase activity in the serum; assay: Incubation of H1b-ADP with FBS, product analysed by LC-MS; format: in vitro ADME, bovine; conditions: pre-treatment of H1b-ADP before serum incubation
Description: FBS contains 110-352 U/ml alkaline phosphatase.

[2] = tested on: ALPK1; assay: IL8 secretion in HEK293 cells (IL8 ELISA) as indicator of ALPK1 activation; conditions: added to the FBS-containing medium, HEK293 cells, IL8 secretion
Method: (§1) We pre-mixed H1b-ADP with phosphatase inhibitor sodium orthovanadate (Na3VO4) before incubation with FBS.
(§2) In these experiments, serial dilutions of the compounds were added to the tissue culture media of HEK293 cells with (FIG. 27B, FIG. 28B, FIG. 29B) or without (FIG. 26, FIG. 27A, FIG. 28A, FIG. 29A) 10% FBS, as indicated in the figures. After 4 hours, the cell supernatant was collected and analyzed for IL8 concentration using IL8 ELISA (BD) as an indicator of ALPK1 activation.

[3] = tested on: CT26 cells; assay: CT26 tumor xenograft model, tumor volume; format: in vivo, BALB/c mice
Method: We used a CT26 tumor xenograft model to test the anti-cancer activity of H1b-ADP. Tumor cells (2×10^5 per 100 uL CT26 cells) were inoculated subcutaneously into the right flank of BALB/c mice. At day 6, mice whose tumors had reached 3-5 mm in diameter were randomized and grouped into three groups (n=8 each group), control, HMP-1bP (580 ug), and H1b-ADP (1.2 ug). Injections were performed using a total volume of 20 uL at days 6, 8, 10, 12, and 14 post inoculation. Tumor volumes were calculated every 2 days from caliper measurements of tumor dimension using the formula (L×W^2)/2, where L is the longer measurement.
To test whether H1b-ADP could augment an anti-tumor response by a checkpoint inhibitor, we tested the effects of co-administration with an anti-PD1 antibody. Tumor cells (2×10^5 per 100 μL CT26 cells) were inoculated subcutaneously into the left and right flanks of BALB/c mice. At day 7, mice whose tumors had reached 5 mm in diameter were randomized and grouped (n=8 each group) into the following four groups: anti-PD1 antibody; rat IgG; H1b-ADP+rat IgG; H1b-ADP+anti-PD1 antibody. We utilized RMP1-14 as the anti-PD1 antibody (10 mg/kg) and a rat IgG 2a (2A3) as the control IgG. Each of the anti-PD-1 antibody and the control IgG was administered intraperitoneally in a 200 μL volume on days 6, 10, 12, and 17 post-inoculation. H1b-ADP (6.2 μg) was intratumorally injected in a 20 μL volume at day 6, 8, 10, 12, and 15. Tumor volumes were calculated every 2 days from caliper measurements of tumor dimensions using the formula (L×W^2)/2, where L is the longer measurement. The results are shown in FIG. 13A for injected tumors and FIG. 13B for distant tumors. […]
The experiment was carried out as combo experiments of anti-PD1 except for the following variations. At day 6, mice whose tumors had reached 5 mm in diameter were randomized and grouped into the following four groups: c-di-AM(PS)2; PBS; H1b-ADP; H1b-ADP+c-di-AM(PS)2. We utilized c-di-AM(PS)2 as the STING agonist. Each of the c-di-AM(PS)2 (1 μg) and H1b-ADP (6.2 μg) was administered intratumorally in a 20 μL volume on days 6, 7, and 9 post-inoculation.
The experiment was carried out as combo experiments of anti-PD-1 except for the following variations. At day 6, mice whose tumors had reached 5 mm in diameter were randomized and grouped into the following four groups: anti-CD4 antibody (GK1.5 clone, BE0003-1, BioXcell); rat IgG; H1b-ADP+rat IgG; H1b-ADP+anti-CD4 antibody. Each of the anti-CD4 antibody (200 μg) and the control IgG (200 μg) was administered intraperitoneally in a 200 μL volume on days 3, 4, 8 post-inoculation. H1b-ADP (6.2 μg) was administered intratumorally in a 20 μL volume on days 6, 8, 10, 12, 14 post-inoculation.
The experiment was carried out as combo experiments of anti-PD-1 except for the following variations. At day 6, mice whose tumors had reached 5 mm in diameter were randomized and grouped into the following four groups: Resquimod; PBS; H1b-ADP; H1b-ADP+Resquimod. Resquimod (10 μg) and H1b-ADP (6.2 μg) were administered intratumorally in a 20 μL volume on days 6, 8, 11 post-inoculation.
We used a CT26 tumor xenograft model to test the anti-cancer activity of H1b-ADP derivative Compounds 1 and 2. Tumor cells (2×10^5 per 100 uL CT26 cells) were inoculated subcutaneously into the right flank of BALB/c mice. At day 7, mice whose tumors had reached 3-5 mm in diameter were randomized and grouped into three groups (n=9 each group), control, Compound 1 (50 nmol), and Compound 2 (50 nmol). Injections were performed using a total volume of 20 uL at days 7, 9, and 11 post inoculation. Tumor volumes were calculated every 2 days from caliper measurements of tumor dimension using the formula (L×W^2)/2, where L is the longer measurement.

[4] = tested on: mouse liver and lung tissue; assay: Chemokine and cytokine expression in liver and lung tissue after subcutaneous injection (qPCR); format: in vivo; conditions: C57 mice, three hours
Method: In additional experiments, Compound 1 was injected subcutaneously into 7 week old C57 mice at concentrations of 2, 10, 50, and 200 nmol. Tissue was harvested three hours later and RNA extracted. Quantitative PCR (qPCR) was performed to determine the tissue expression levels Cxcl1, Cxcl11, IL1b, and IL6 in mouse liver (FIG. 32A) and lung (FIG. 32B) tissue. Additional chemokines and cytokines were assayed in the lung tissue.

[5] = biological target: T1, ALPK1 (Homo sapiens, UniProt Q96QP1); assay: IL8 secretion in HEK293 cells (IL8 ELISA) as indicator of ALPK1 activation; conditions: without FBS, 4 hours
Method: as §1, §2

[6] = biological target: T1, ALPK1; assay: In vitro kinase assay of ALPK1-dependent TIFA phosphorylation; format: biochemical; conditions: for phosphorylation of the ALPK1 substrate TIFA: FIG. 7, chemically-synthesized compounds
Method: We performed an in vitro kinase assay with H1b-ADP and H1b-ADP-6L along with ALPK1 protein (2 nM), and TIFA protein (1.6 uM) in kinase buffer containing 50 uM ATP. TIFA phosphorylation was analyzed by denaturing gel electrophoresis followed by western blotting using an anti-phosphothreonine antibody. H1b-ADP or H1b-ADP-6L was added at 2 nM, 0.4 nM, 80 pM, 16 pM, and 3 pM.
To test this, we performed an in vitro kinase reaction for ALPK1-dependent TIFA phosphorylation in the presence of either HBP or HIdA purified from E. coli containing inactivated HIdE, or in the presence of HBP and HIdA purified from the same HIdE wild-type E. coli used in the previous experiments. Phosphorylated TIFA (three concentrations, 1%, 0.2% and […]) was detected as described above by denaturing gel electrophoresis followed by Western analysis.

[7] = biological target: T1, ALPK1; assay: Thermal shift assay (SYPRO Orange) for binding to ALPK1; conditions: ALPK1 7 uM; 1 uM, 5 uM, 25 uM, or 125 uM
Description: The thermal shift assay is widely used to determine the binding of a molecule to a protein of interest. The assay is based on the increase in thermal energy required for denaturation of a protein where another molecule is bound to the protein. SYPRO Orange is a fluorescent compound used in the detection of thermal shift. SYPRO Orange binds to hydrophobic surfaces of the protein, and water strongly quenches its fluorescence. When the protein unfolds, the exposed hydrophobic surfaces bind the dye, resulting in an increase in fluorescence. When another molecule is bound to the protein, an increase in the temperature required for unfolding of the protein is observed.
This assay system was used to determine whether or not chemically synthesized HBP, HMP-1bP, and H1b-ADP directly bind to ALPK1. […] Only H1b-ADP induced a shift of more than 1 degree, at each of the three highest concentrations tested, 5 uM, 25 uM, and 125 uM.

[8] = biological target: T1, ALPK1; assay: Cell-free kinase assay of ALPK1 autophosphorylation (Western, anti-phospho-threonine); format: biochemical; conditions: ALPK1 2 nM, ATP; H1b-ADP 10, 1, 0.2 nM; HBP and HMP-1bP 1, 10, 100 nM
Method: ALPK1 activation results in its autophosphorylation. Accordingly, we next asked whether the binding of H1b-ADP to ALPK1 was sufficient to induce ALPK1 autophosphorylation. Phosphorylation assays were performed according to standard protocols. Briefly, ALPK1 was incubated (2 nM, 25° C., 1 h) in assay buffer (20 al, 25 mM HEPES pH 7.5, 50 mM KCl, 0.1 mM EDTA, 0.1 mM EGTA, 2 mM DTT, 1.5 mM CaCl2, 10 mM MgCl2) with ATP and chemically synthesized HBP, HMP-1bP, or H1b-ADP followed by denaturing gel electrophoresis and Western analysis with an anti-phospho-threonine antibody (CST) to detect autophosphorylation of ALPK1. […] The range of concentrations of HBP and HMP-1bP used in this assay (1 nM, 10 nM, 100 nM) was 10-fold higher than that used for H1b-ADP.

[9] = biological target: T1, ALPK1; assay: IL-8 and TNFα mRNA expression in HEK293 cells with control or ALPK1-directed siRNA; format: cell-based; parameters: ALPK1-directed small interfering RNA (siRNA) to silence ALPK1 expression in HEK293 cells; endogenous in cells; host or cells: HEK293; conditions: for IL-8 mRNA expression / TNFα mRNA expression: 4 hours, control vs ALPK1-directed siRNA; for concentration required to induce IL-8 and TNFα mRNA expression: FIG. 5
Method: To test whether HBP, HMP-1bP, and H1b-ADP were able to induce cytokine expression in an ALPK1 dependent manner, we used an ALPK1-directed small interfering RNA (siRNA) to silence ALPK1 expression in HEK293 cells. Cells were plated (1×10^4 cells/well) into 96-well plates and transfected with either control siRNA or ALPK1-directed siRNA according to the manufacturer's protocols (Lipofectamine™ RNAiMax™, Invitrogen 13778075). Following 2 days of culture, either (1) HBP (500 uM, 100 uM, 20 uM, FIG. 2A-2B) (2) HMP-1bP (500 uM, 100 uM, FIG. 3A-3B), (3) H1b-ADP (100 nM, 20 nM, 4 nM, 0.8 nM, FIG. 4A-4B) was added to culture medium and cells were harvested 4 hours later.

[10] = Example 18: 50 nmol, injections days 7, 9, 11

T1 sequence (Q96QP1 whole entry): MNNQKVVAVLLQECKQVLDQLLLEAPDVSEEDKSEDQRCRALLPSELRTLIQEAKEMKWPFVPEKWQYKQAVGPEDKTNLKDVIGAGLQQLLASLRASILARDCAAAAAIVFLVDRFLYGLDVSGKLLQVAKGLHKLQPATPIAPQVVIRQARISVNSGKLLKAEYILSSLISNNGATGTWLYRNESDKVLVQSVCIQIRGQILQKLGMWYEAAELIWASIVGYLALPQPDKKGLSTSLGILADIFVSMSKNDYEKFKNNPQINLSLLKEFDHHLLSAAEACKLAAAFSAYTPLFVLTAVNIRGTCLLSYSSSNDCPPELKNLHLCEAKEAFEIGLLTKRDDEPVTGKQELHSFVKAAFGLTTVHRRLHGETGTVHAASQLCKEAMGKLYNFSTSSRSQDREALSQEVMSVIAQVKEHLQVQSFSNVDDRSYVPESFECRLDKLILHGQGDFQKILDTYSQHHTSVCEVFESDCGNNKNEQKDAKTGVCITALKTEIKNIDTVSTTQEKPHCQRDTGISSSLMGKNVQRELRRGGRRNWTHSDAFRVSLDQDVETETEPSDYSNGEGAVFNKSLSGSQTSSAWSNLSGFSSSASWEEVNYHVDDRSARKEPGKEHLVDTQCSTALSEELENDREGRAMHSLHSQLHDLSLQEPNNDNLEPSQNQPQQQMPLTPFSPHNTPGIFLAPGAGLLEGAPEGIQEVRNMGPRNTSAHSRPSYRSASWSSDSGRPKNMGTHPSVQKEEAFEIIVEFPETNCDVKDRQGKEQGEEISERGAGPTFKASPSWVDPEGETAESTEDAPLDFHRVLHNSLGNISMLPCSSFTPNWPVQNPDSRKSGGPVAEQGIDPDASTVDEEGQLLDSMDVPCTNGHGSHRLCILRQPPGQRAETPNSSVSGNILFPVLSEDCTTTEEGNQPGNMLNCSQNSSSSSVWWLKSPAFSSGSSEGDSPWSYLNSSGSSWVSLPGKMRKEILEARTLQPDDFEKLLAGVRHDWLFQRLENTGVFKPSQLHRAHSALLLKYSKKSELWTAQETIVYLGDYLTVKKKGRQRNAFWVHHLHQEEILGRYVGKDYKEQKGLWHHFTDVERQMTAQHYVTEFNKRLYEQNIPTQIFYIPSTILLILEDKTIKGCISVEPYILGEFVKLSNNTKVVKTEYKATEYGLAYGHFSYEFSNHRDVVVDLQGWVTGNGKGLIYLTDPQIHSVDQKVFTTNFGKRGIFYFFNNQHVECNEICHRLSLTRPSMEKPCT

Row | SMILES | tumor growth [3, 10] | IL8 secretion in HEK293 cells [5] | thermal shift / direct binding to ALPK1 [7] | autophosphorylation of ALPK1 [8] | phosphorylation of the ALPK1 substrate TIFA [6] | IL-8 mRNA expression [9] | TNFα mRNA expression [9] | concentration required to induce IL-8 and TNFα mRNA expression [9] | also measured
1 | Nc1ncnc2c1ncn2[C@@H]1O[C@H](COP(=O)(O)O)[C@@H](O)[C@H]1O [AMP] | – | – | – | – | – | – | – | – | phosphatase activity in serum [1]: inhibited phosphatase activity and the inhibition was AMP dose-dependent; restoration of H1b-ADP's activity in the cell based assay [2]: could restore H1b-ADP's activity
2 | CC(=O)OC[C@@H](OC(C)=O)[C@H]1O[C@@H](OP(=O)(O)OP(=O)(O)OC[C@H]2O[C@@H](n3cnc4c(N)ncnc43)[C@H](O)[C@@H]2F)[C@@H](OC(C)=O)[C@@H](OC(C)=O)[C@@H]1OC(C)=O [Compound 1, (2S,3S,4S,5R,6R)-2-(((((((2R,3S,4S,5R)-5-(6-amino-9H-purin-9-yl)-3-fluoro-4-hydroxytetrahydrofuran-2-yl)methoxy)(hydroxy)phosphoryl)oxy)(hydroxy)phosphoryl)oxy)-6-((R)-1,2-diacetoxyethyl)tetrahydro-2H-pyran-3,4,5-triyl triacetate] | reduced tumor growth | activate IL8 secretion | – | – | – | – | – | – | dose activating an inflammatory response in lung tissue [4]: 200 nmol; dose activating an inflammatory response in liver tissue ([4]; 2 nmole = 1.2 μg): ≤ 2 nmol
3 | Nc1ncnc2c1ncn2[C@@H]1O[C@H](COP(=O)(O)OP(=O)(O)O[C@@H]2OC([C@H](O)CO)[C@@H](O)C(O)C2O)C(F)C1O (stereo partly drawn) [Compound 2, Adenosine-3′-fluoro-5′-(D-glycero-β-D-mannoheptopyranosyl) diphosphate] | reduced tumor growth | activate IL8 secretion | – | – | – | – | – | – | –
4 | Nc1ncnc2c1ncn2[C@@H]1O[C@H](COP(=O)(O)OP(=O)(O)O[C@@H]2O[C@H]([C@@H](O)CO)[C@@H](O)[C@H](O)[C@@H]2O)[C@@H](O)[C@H]1O [Compound H1b-ADP-6L, L-glycero-D-manno-heptose-1β-ADP] | – | – | – | – | – | – | – | – | TIFA phosphorylation (ALPK1-dependent signaling) ([6]; ALPK1 2 nM, TIFA 1.6 uM, 50 uM ATP, 2 nM to 3 pM): activated ALPK1-dependent signaling in a manner similar to H1b-ADP
5 | O=P(O)(O)OC[C@@H](O)[C@H]1O[C@@H](OP(=O)(O)O)[C@@H](O)[C@@H](O)[C@@H]1O [HBP, D-glycero-β-D-manno-heptose 1,7-bisphosphate] | – | – | Neither HBP nor HMP-1bP were able to induce a thermal shift | not | only in the presence of H1b-ADP | increased in an ALPK1-dependent manner | increased in an ALPK1-dependent manner | 100 µM | anti-tumor activity in a murine tumor model ([3]; summary statement): not
6 | O=P(O)(O)O[C@@H]1O[C@H]([C@H](O)CO)[C@@H](O)[C@H](O)[C@@H]1O [HMP-1bP, D-glycero-β-D-manno-heptose-1-phosphate] | – | – | Neither HBP nor HMP-1bP were able to induce a thermal shift | not | only in the presence of H1b-ADP | increased in an ALPK1-dependent manner | increased in an ALPK1-dependent manner | 100 µM | tumor growth ([3]; intratumoral, days 6, 8, 10, 12, 14, HMP-1bP 580 ug, H1b-ADP 1.2 ug): not
